Where two headings read alike, the source gives them in different places.
Experiments:
[1] = target: ecNadD (Escherichia coli (strain K12), UniProt P0A752); assay: biochemical; type: biochemical; settings: for IC50: IC50 ecNadD; for inhibition at 100 µM: read-out: INHIBITION (%) E. coli
[2] = target: baNadD (Bacillus anthracis, UniProt C3L5T6); assay: biochemical; type: biochemical; settings: for inhibition at 50 µM: read-out: INHIBITION (%) B. anthracis
Sequence of baNadD (C3L5T6 whole entry, looked up): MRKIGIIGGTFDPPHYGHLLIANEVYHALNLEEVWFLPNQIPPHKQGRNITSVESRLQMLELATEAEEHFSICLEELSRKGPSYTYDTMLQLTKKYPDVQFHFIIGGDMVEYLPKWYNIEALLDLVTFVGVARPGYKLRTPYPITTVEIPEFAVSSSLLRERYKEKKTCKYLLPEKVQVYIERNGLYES

| Structure (SMILES) | IC50 [1] [µM] | inhibition at 100 µM [1] [%] | inhibition at 50 µM [2] [%] | IC50 ([2]; IC50 baNadD) [µM] | further results |
| --- | --- | --- | --- | --- | --- |
| O=C(CCC(=O)Nc1cccc(Br)c1)N/N=C/c1c2ccccc2cc2ccccc12 [01_01] | 6 | 90 | 81 | – | IC50 ([2]; read-out: IC50 baNadD): 4 µM |
| O=C(CCC(=O)Nc1ccccc1Br)N/N=C/c1c2ccccc2cc2ccccc12 [01_04] | 15 | 79 | 100 | – | IC50 ([2]; read-out: IC50 baNadD): 25 µM |
| CC(/C=N/NC(=O)CCC(=O)Nc1ccc(Br)cc1)c1ccc2ccccc2c1 (stereo not drawn) [01_05] | 88 | 78 | 76 | – | – |
| O=C(CCC(=O)Nc1ccc(I)cc1)N/N=C/c1cccc(Br)c1 [01_06] | – | 78 | 54 | – | – |
| Cc1ccc(NC(=O)CCC(=O)N/N=C/c2cccc(Br)c2)cc1 [01_08] | – | 75 | 74 | – | – |
| O=C(CCC(=O)Nc1ccc(Br)cc1)N/N=C/c1ccc(Br)cc1 [01_09] | – | 74 | 68 | – | – |
| O=C(CCC(=O)Nc1cccc(Br)c1)N/N=C/c1cccc(Br)c1 [01_10] | – | 72 | 53 | – | – |
| COc1ccc(/C(C)=N/NC(=O)CNc2cc(Br)c(C)c(Br)c2)c(OC)c1 [01_11] | – | 70 | 86 | – | IC50 ([2]; read-out: IC50 baNadD): 30 µM |
| O=C(CCC(=O)Nc1ccc(Br)cc1)N/N=C/C=C/c1ccccc1 [01_12] | – | 68 | 75 | 48 | – |
| O=C(CCC(=O)Nc1ccc(Br)cc1)N/N=C/c1cccc(Br)c1 [01_13] | – | 67 | 29 | – | IC50 ([2]; read-out: IC50 baNadD): 170 µM |
| Cc1ccc(/C=N/NC(=O)CCC(=O)Nc2ccc(C)cc2)cc1 [01_14] | – | 60 | 70 | – | – |
| O=C(CCC(=O)Nc1ccc(Br)cc1)N/N=C/c1ccc(F)cc1 [01_15] | – | 47 | 22 | – | IC50 ([2]; read-out: IC50 baNadD): 122 µM |
| O=C(CCC(=O)Nc1ccc(F)cc1)N/N=C/c1ccc(O)cc1 [01_16] | – | 42 | 29 | – | – |
| O=C(CCC(=O)Nc1cccc(Br)c1)N/N=C/c1ccc(I)cc1 [01_17] | – | 41 | 35 | – | – |
| C/C(=N/NC(=O)CCC(=O)Nc1ccc(Br)cc1)c1ccc(Br)cc1 [01_18] | – | 38 | 49 | – | – |
| O=C(CCC(=O)Nc1ccccc1Cl)NN=Cc1ccc(C=NNC(=O)CCC(=O)Nc2ccccc2Cl)cc1 [1—02—1, N-(2-Chloro-phenyl)-3-(4-{[3-(2-chloro-phenylcarbamoyl)-propionyl]-hydrazonomethyl}-benzylidene-hydrazinocarbonyl)-propionamide] | 13 ± 2 | – | – | – | ecNadD inhibition (qualitative) [1]: effective; baNadD inhibition (qualitative) [2]: effective; improvement in activity compared to precursors 1_13 and 1_15 [2]: more than 10 fold |
| O=C(O)CNN=C(C(=O)CCC(=O)Nc1ccccc1Cl)c1ccc(C=NN(CC(=O)O)C(=O)CCC(=O)Nc2ccccc2Cl)cc1 [1—02—2, {N′-(4-{Carboxymethyl-[3-(2-chloro-phenylcarbamoyl)-propionyl]-hydrazonomethyl}-benzylidene)-N-[3-(2-chloro-phenylcarbamoyl)-propionyl]-hydrazino}-acetic acid] | – | – | – | – | inhibitory activity against baNadD [2]: did not inhibit |
| O=C(O)CN(N=Cc1cccc2ccccc12)C(=O)CCC(=O)Nc1ccccc1Cl [1—02—3, {N-[3-(2-Chloro-phenylcarbamoyl)-propionyl]-N′-naphthalen-1-ylmethylene-hydrazino}-acetic acid] | – | – | – | > 200 | – |
| Nc1c(C(=O)Nc2cc(F)ccc2F)sc2nc(-c3cccs3)ccc12 [03_01] | 25 | – | – | 25 | INHIBITION (%) E. coli [1]: 100% 25; INHIBITION (%) B. anthracis [2]: 100% 25 |
| Nc1c(C(=O)Nc2cc(Cl)cc(Cl)c2)sc2nc(-c3cccs3)ccc12 [03_03] | 64 | 93 | 90 | 21 | – |

| Structure (SMILES) | IC50 [1] [µM] | inhibition at 100 µM [1] [%] | inhibition at 50 µM [2] [%] | IC50 ([2]; IC50 baNadD) [µM] | further results |
| --- | --- | --- | --- | --- | --- |
| Nc1c(C(=O)Nc2ccc(Cl)cc2Cl)sc2nc(-c3ccncc3)ccc12 [03_04] | 21 | 84 | 79 | 21 | – |
| Nc1c(C(=O)Nc2ccc(F)cc2)sc2nc(-c3ccncc3)ccc12 [03_06] | > 200 | 80 | 40 | > 200 | – |
| Nc1c(C(=O)Nc2ccc(F)cc2F)sc2nc(-c3cccs3)ccc12 [03_07] | 44 | 69 | 83 | 18 | – |
| Nc1c(C(=O)Nc2ccc(Cl)cc2)sc2nc(-c3ccc(F)cc3)ccc12 [03_08] | > 200 | 68 | 28 | > 200 | – |
| Nc1c(C(=O)Nc2ccc(Cl)c(Cl)c2)sc2nc(-c3cccs3)ccc12 [03_09] | – | 60 | 63 | – | – |
| Nc1c(C(=O)Nc2cccc(F)c2)sc2nc(-c3ccc(F)cc3)ccc12 [03_10] | – | 56 | 60 | – | – |
| Nc1c(C(=O)Nc2ccc(Cl)cc2Cl)sc2nc(-c3cccs3)ccc12 [03_11] | 30 | 54 | 90 | 13 | – |
| Nc1c(C(=O)Nc2cccc(Cl)c2)sc2nc(-c3cccs3)ccc12 [03_12] | 71 | 53 | 89 | 15 | – |
| Nc1c(C(=O)Nc2ccc(F)c(Cl)c2)sc2nc(-c3ccc(F)cc3)ccc12 [03_13] | – | 52 | 26 | – | – |
| Nc1c(C(=O)Nc2ccc(F)c(F)c2)sc2nc(-c3cccs3)ccc12 [03_14] | 117 | 46 | 92 | 38 | – |
| Nc1c(C(=O)Nc2cccc(Cl)c2)sc2nc(-c3ccc(F)cc3)ccc12 [03_16] | 50 | 46 | 83 | 35 | – |
| Nc1c(C(=O)Nc2cc(F)ccc2F)sc2nc(-c3cccs3)ccc12 [03_18] | 35 | – | – | 14 | INHIBITION (%) E. coli [1]: 41% 35; INHIBITION (%) B. anthracis [2]: 71% 14 |
| Nc1c(C(=O)Nc2ccc(Cl)cc2F)sc2nc(-c3ccc(F)cc3)ccc12 [03_19] | – | 32 | 61 | – | – |
| Nc1c(C(=O)Nc2c(Cl)cccc2Cl)sc2nc(-c3cccnc3)ccc12 [03_20] | > 200 | 24 | 11 | > 200 | – |
| NC(=O)c1sc2nc(-c3ccc(F)cc3)cc(-c3ccccc3)c2c1N [03_21] | – | 22 | 58 | – | – |
| Nc1c(C(=O)Nc2ccc(F)c(Cl)c2)sc2nc(-c3ccncc3)ccc12 [03_22] | 100 | 21 | 83 | 39 | – |
| Nc1c(C(=O)Nc2ccc(F)c(F)c2)sc2nc(-c3ccc(F)cc3)ccc12 [03_24] | > 200 | 9 | 5 | > 200 | – |
| Nc1c(C(=O)Nc2ccc(F)cc2)sc2nc(-c3ccc(F)cc3)ccc12 [03_25] | – | 8 | 1 | – | – |
| Nc1c(C(=O)Nc2ccc(F)c(F)c2)sc2nc(-c3ccncc3)ccc12 [03_26] | – | 7 | 23 | – | – |
| Nc1c(C(=O)Nc2ccc(F)cc2F)sc2nc(-c3ccncc3)ccc12 [03_27] | – | 0 | 20 | – | – |

| Structure (SMILES) | IC50 [1] [µM] | inhibition at 100 µM [1] [%] | inhibition at 50 µM [2] [%] | IC50 ([2]; IC50 baNadD) [µM] | further results |
| --- | --- | --- | --- | --- | --- |
| Nc1c(C(=O)Nc2cc(Cl)cc(Cl)c2)sc2nc(-c3ccncc3)ccc12 [03_28] | – | 0 | 0 | – | – |
| Nc1c(C(=O)Nc2ccc(Cl)cc2)sc2nc(-c3ccncc3)ccc12 [03_29] | – | 0 | 0 | – | – |
| Cc1ccc(N/C=C2\C(=O)Nc3ccccc32)cc1Cl [15_01] | > 200 | 24 | 37 | > 200 | – |
| Cc1ccc(N/C=C2\C(=O)Nc3ccccc32)c(C)c1 [15_02] | – | 20 | 29 | – | – |
| CN(C)c1ccc(N/C=C2\C(=O)Nc3ccccc32)cc1 [15_03] | – | 19 | 27 | – | – |
| Cc1ccc(C)c(N/C=C2\C(=O)Nc3ccccc32)c1 [15_04] | – | 18 | 26 | – | – |
| O=C1Nc2ccccc2/C1=C/NCc1cccnc1 [15_05] | – | 17 | 23 | – | – |
| O=C1Nc2ccccc2/C1=C/Nc1ccc(F)cc1 [15_06] | – | 15 | 49 | – | – |
| O=C1Nc2ccccc2/C1=C/Nc1cccc(Cl)c1 [15_07] | – | 15 | 45 | – | – |
| COC(=O)c1ccccc1N/C=C1\C(=O)Nc2ccccc21 [15_08] | – | 14 | 0 | – | – |
| O=C1Nc2ccccc2/C1=C/Nc1ccc(Br)cc1 [15_09] | > 200 | 13 | 60 | 111 | – |
| Cc1cccc(N/C=C2\C(=O)Nc3ccccc32)c1C [15_10] | – | 13 | 26 | – | – |
| CSc1ccc(N/C=C2\C(=O)Nc3ccccc32)cc1 [15_12] | – | 12 | 25 | – | – |
| Cc1c(Cl)cccc1N/C=C1\C(=O)Nc2ccccc21 [15_13] | – | 12 | 36 | – | – |
| Cc1ccc(N/C=C2\C(=O)Nc3ccccc32)cc1C [15_14] | 88 | 12 | 70 | 74 | – |
| O=C1Nc2ccccc2/C1=C/Nc1cccnc1 [15_15] | – | 12 | 10 | – | – |
| Sc1nnc(-c2ccncc2)n1-c1ccccc1Cl [compound 042] | – | – | – | – | […]. coli [1]: 19% |
| Nc1n[nH]c(N)c1/N=N/c1ccccc1 [compound 271] | – | – | – | – | […]. coli [1]: 0% |
| Nc1n[nH]c(N)c1/N=N/c1ccccc1 [compound 272] | – | – | – | – | […]. anthracis [2]: 23% |
| O=C(CCS(=O)(=O)c1ccc(Br)s1)NCc1cccs1 [compound 285] | – | – | – | – | […]. coli [1]: 0% |

Source: US8785499B2 (priority 2009, dated 2014)
